Where a name gives a salt, the structure may show the parent alone. Read-outs that look alike come from different tables or passages of the source.
Key:
Candida albicans [1] = assay: TLC-bioautography using Candida albicans; assay type: cell-based; conditions: aqueous layer of culture filtrate; cellulose f, acetonitrile:water (3:1)
[2] = test system: Filobasidium uniguttulatum IFO 0699; assay: Paper disc agar diffusion, growth-inhibition zone; assay type: cell-based; conditions: IFO0699, 48 h, monosodium salt, disc 1000 μg/ml, 28 °C, read-out: Diameter of growth-inhibition zone
Description: (§1) Paper discs (8 mm. in diameter, manufactured by Toyo Seisakusho) immersed in an aqueous solution of the antibiotic TAN-950A (monosodium salt) (1000 μg/ml) were put on agar plates seeded with the test organism, and these agar plates were incubated at a given […] for a given period of time. In the Table, "0" means no formation of the growth-inhibition zone. Culture media employed are as follows:
(§2) B: Yeast nitrogen base agar medium (Difco Laboratories, USA) supplemented with L-asparagine (0.17%)
(§3) D: Yeast nitrogen base agar medium (Difco Laboratories, USA) supplemented with glucose (2%) and agar (1.5%)

[3] = test system: Cryptococcus neoformans IFO 0410; assay: Paper disc agar diffusion, growth-inhibition zone; assay type: cell-based; conditions: IFO0410, 48 h, monosodium salt, disc 1000 μg/ml, 28 °C, read-out: Diameter of growth-inhibition zone
Description: as §1, §2, §3

[4] = test system: Saccharomyces cerevisiae IFO 0209; assay: Paper disc agar diffusion, growth-inhibition zone; assay type: cell-based; conditions: IFO0209, 48 h, monosodium salt, disc 1000 μg/ml, 28 °C, read-out: Diameter of growth-inhibition zone
Description: as §1, §2, §3

[5] = test system: Candida albicans IFO 0583; assay: Paper disc agar diffusion, growth-inhibition zone; assay type: cell-based; conditions: IFO0583, 48 h, monosodium salt, disc 1000 μg/ml, 28 °C, read-out: Diameter of growth-inhibition zone
Description: as §1, §2, §3

[6] = test system: Penicillium chrysogenum IFO 4626; assay: Paper disc agar diffusion, growth-inhibition zone; assay type: cell-based; conditions: IFO4626, monosodium salt, disc 1000 μg/ml, 28 °C, read-out: Diameter of growth-inhibition zone
Description: as §1, §2, §3

Candida utilis IFO 0619 = assay: Paper disc agar diffusion, growth-inhibition zone; assay type: cell-based; conditions: monosodium salt, disc 1000 μg/ml, 28 °C, 48 h, 0 = no zone
Description: as §1, §2, §3

[7] = test system: Aspergillus fumigatus IFO 6344; assay: Paper disc agar diffusion, growth-inhibition zone; assay type: cell-based; conditions: IFO6344, 48 h, monosodium salt, disc 1000 μg/ml, 28 °C, read-out: Diameter of growth-inhibition zone
Description: as §1, §2, §3

[8] = test system: Torulopsis glabrata IFO 1085; assay: Paper disc agar diffusion, growth-inhibition zone; assay type: cell-based; conditions: Nakaseomyces glabratus, IFO1085, 48 h, monosodium salt, disc 1000 μg/ml, 28 °C, read-out: Diameter of growth-inhibition zone
Description: as §1, §2, §3

[9] = test system: Candida parapsilosis IFO1396; assay: Paper disc agar diffusion, growth-inhibition zone; assay type: cell-based; conditions: Lodderomyces parapsilosis, monosodium salt, disc 1000 μg/ml, medium D, 28 °C, 48 h, read-out: Diameter of growth-inhibition zone
Description: as §1, §3

[10] = test system: Microsporum gypseum IFO 6075; assay: Paper disc agar diffusion, growth-inhibition zone; assay type: cell-based; conditions: Nannizzia gypsea, IFO6075; monosodium salt, disc 1000 μg/ml; medium D, 28 °C, 72 h; read-out: Diameter of growth-inhibition zone
Description: as §1, §3

[11] = test system: Candida tropicalis IFO0006; assay: Paper disc agar diffusion, growth-inhibition zone; assay type: cell-based; conditions: monosodium salt, disc 1000 μg/ml, medium D, 28 °C, 48 h, read-out: Diameter of growth-inhibition zone
Description: as §1, §3

[12] = test system: Candida parakrusei IFO0640; assay: Paper disc agar diffusion, growth-inhibition zone; assay type: cell-based; conditions: monosodium salt, disc 1000 μg/ml, medium D, 28 °C, 48 h, read-out: Diameter of growth-inhibition zone
Description: as §1, §3

[13] = test system: Trichophyton rubrum IFO 5467; assay: Paper disc agar diffusion, growth-inhibition zone; assay type: cell-based; conditions: IFO5467, monosodium salt, disc 1000 μg/ml, 28 °C, read-out: Diameter of growth-inhibition zone
Description: as §1
A: Sabouraud's dextrose agar medium
as §3

[14] = test system: Escherichia coli NIH JC-2; assay: Paper disc agar diffusion, growth-inhibition zone; assay type: cell-based; conditions: NIHJC2, monosodium salt, disc 1000 μg/ml, medium C, 37 °C, 20 h, 0 = no zone, read-out: Diameter of growth-inhibition zone
Description: as §1
(§4) C: Trypticase soy agar (Becton Dickinson Co., USA)

[15] = test system: Bacillus subtilis PCI 219; assay: Paper disc agar diffusion, growth-inhibition zone; assay type: cell-based; conditions: PCI219, monosodium salt, disc 1000 μg/ml, medium C, 37 °C, 20 h, 0 = no zone, read-out: Diameter of growth-inhibition zone
Description: as §1, §4

Solubility = assay type: physicochemical
From the text: The physico-chemical properties of TAN-950A (monosodium salt) obtained in Example 2 described later are as follows.

mice = assay: Acute toxicity in mice; assay type: in vivo; conditions: intravenous, subdermal, intraperitoneal or oral, 4000 mg/kg
Candida albicans [16] = assay: Therapeutic effect on experimental candidosis in mice; assay type: in vivo; conditions: intravenously infected, twice administration, total of dosages

Question: With `N[C@@H](Cc1c[nH]oc1=O)C(=O)O` [TAN-950A] as the compound, how does the “inhibition zone in TLC-bioautography” value (Candida albicans [1]) read?
Answer: Its value is “inhibition zones”.

Question: And the zone of inhibition at 1000 µg/mL ([2]; medium B)?
Answer: Its zone of inhibition at 1000 µg/mL is 23 mm.

Question: And the zone of inhibition at 1000 µg/mL ([2]; medium D)?
Answer: The zone of inhibition at 1000 µg/mL was 35 mm.

Question: What about the zone of inhibition at 1000 µg/mL ([3]; medium B, 0 = no zone) of the same compound?
Answer: Its zone of inhibition at 1000 µg/mL is 0 mm.

Question: And the zone of inhibition at 1000 µg/mL ([3]; medium D)?
Answer: Its zone of inhibition at 1000 µg/mL is 27 mm.

Question: And the zone of inhibition at 1000 µg/mL ([4]; medium B)?
Answer: The zone of inhibition at 1000 µg/mL was 24 mm.

Question: What about the zone of inhibition at 1000 µg/mL ([4]; medium D) of the same compound?
Answer: Its zone of inhibition at 1000 µg/mL is 25 mm.

Question: What about the zone of inhibition at 1000 µg/mL ([5]; medium B) of the same compound?
Answer: Its zone of inhibition at 1000 µg/mL is 21 mm.

Question: And the zone of inhibition at 1000 µg/mL ([5]; medium D)?
Answer: Its zone of inhibition at 1000 µg/mL is 34 mm.

Question: What about the zone of inhibition at 1000 µg/mL ([6]; medium B, 66 h, 0 = no zone) of the same compound?
Answer: Its zone of inhibition at 1000 µg/mL is 0 mm.

Question: And the zone of inhibition at 1000 µg/mL ([6]; medium D, 72 h)?
Answer: The zone of inhibition at 1000 µg/mL was 35 mm.

Question: And the zone of inhibition at 1000 µg/mL (Candida utilis IFO 0619; Williopsis jadinii, IFO0619, medium B, read-out: Diameter of growth-inhibition zone)?
Answer: Its zone of inhibition at 1000 µg/mL is 0 mm.

Question: And the “Diameter of growth-inhibition zone” value (Candida utilis IFO 0619; medium D)?
Answer: The value was 0 mm.

Question: What about the zone of inhibition at 1000 µg/mL ([7]; medium B, 0 = no zone) of the same compound?
Answer: The zone of inhibition at 1000 µg/mL was 0 mm.

Question: And the zone of inhibition at 1000 µg/mL ([7]; medium D)?
Answer: The zone of inhibition at 1000 µg/mL was 57 mm.

Question: What about the zone of inhibition at 1000 µg/mL ([8]; medium B) of the same compound?
Answer: Its zone of inhibition at 1000 µg/mL is 23 mm.

Question: And the zone of inhibition at 1000 µg/mL ([8]; medium D)?
Answer: Its zone of inhibition at 1000 µg/mL is 26 mm.

Question: And the zone of inhibition at 1000 µg/mL [9]?
Answer: The zone of inhibition at 1000 µg/mL was 40 mm.

Question: What about the zone of inhibition at 1000 µg/mL [10] of the same compound?
Answer: The zone of inhibition at 1000 µg/mL was 41 mm.

Question: What about the zone of inhibition at 1000 µg/mL [11] of the same compound?
Answer: Its zone of inhibition at 1000 µg/mL is 25 mm.

Question: And the zone of inhibition at 1000 µg/mL [12]?
Answer: The zone of inhibition at 1000 µg/mL was 43 mm.

Question: What about the zone of inhibition at 1000 µg/mL ([13]; medium A, 48 h, 0 = no zone) of the same compound?
Answer: Its zone of inhibition at 1000 µg/mL is 0 mm.

Question: And the zone of inhibition at 1000 µg/mL ([13]; medium D, 72 h)?
Answer: Its zone of inhibition at 1000 µg/mL is 47 mm.

Question: What about the zone of inhibition at 1000 µg/mL [14] of the same compound?
Answer: Its zone of inhibition at 1000 µg/mL is 0 mm.

Question: What about the zone of inhibition at 1000 µg/mL [15] of the same compound?
Answer: The zone of inhibition at 1000 µg/mL was 0 mm.

Question: Which Solubility (Solubility; acetone) does the source give for `N[C@@H](Cc1c[nH]oc1=O)C(=O)O` [TAN-950A monosodium salt] here?
Answer: The Solubility was “Sparingly soluble”.

Question: What about the Solubility (Solubility; chloroform) of the same compound?
Answer: Its Solubility is “Sparingly soluble”.

Question: What about the Solubility (Solubility; dimethyl sulfoxide) of the same compound?
Answer: The Solubility was “Soluble”.

Question: What about the Solubility (Solubility; ethyl acetate) of the same compound?
Answer: Its Solubility is “Sparingly soluble”.

Question: And the Solubility (Solubility; methanol)?
Answer: The Solubility was “Soluble”.

Question: What about the Solubility (Solubility; water) of the same compound?
Answer: Its Solubility is “Soluble”.

Question: And the acute toxicity (mice)?
Answer: The acute toxicity was “No acute toxicity”.

Question: What about the ED50 (Candida albicans [16]; oral) of the same compound?
Answer: The ED50 was 105 mg/kg.

Question: And the ED50 (Candida albicans [16]; sc, subcutaneous)?
Answer: The ED50 was 40 mg/kg.

— patent publication US4895864A, “Antibiotic TAN-950A, its production and use” (Takeda Chemical Industries, Ltd., priority 1987, dated 1990)
